Test results: US20090304692A1, “TRIAZINE COMPOUNDS AS PI3 KINASE AND MTOR INHIBITORS” (Wyeth, priority 2008, published 2009)
Several values for one entry are separate records, joined by “and”; a condition that tells them apart may be missing. Equal entries are not always repeated. Where two headings read alike, the source gives them in different places.

How the values were obtained:
[1] = target: PI3K-γ (Homo sapiens, UniProt P48736); assay: PI3K-gamma fluorescence polarization assay
[2] = target: Human mTOR (FLAG-TOR) (Homo sapiens, UniProt P42345); assay: mTOR kinase assay (DELFIA format, purified enzyme); format: biochemical; conditions: read-out: IC50 mTOR
Sequence of Human mTOR (FLAG-TOR) (P42345 1360-2549 limits assumed): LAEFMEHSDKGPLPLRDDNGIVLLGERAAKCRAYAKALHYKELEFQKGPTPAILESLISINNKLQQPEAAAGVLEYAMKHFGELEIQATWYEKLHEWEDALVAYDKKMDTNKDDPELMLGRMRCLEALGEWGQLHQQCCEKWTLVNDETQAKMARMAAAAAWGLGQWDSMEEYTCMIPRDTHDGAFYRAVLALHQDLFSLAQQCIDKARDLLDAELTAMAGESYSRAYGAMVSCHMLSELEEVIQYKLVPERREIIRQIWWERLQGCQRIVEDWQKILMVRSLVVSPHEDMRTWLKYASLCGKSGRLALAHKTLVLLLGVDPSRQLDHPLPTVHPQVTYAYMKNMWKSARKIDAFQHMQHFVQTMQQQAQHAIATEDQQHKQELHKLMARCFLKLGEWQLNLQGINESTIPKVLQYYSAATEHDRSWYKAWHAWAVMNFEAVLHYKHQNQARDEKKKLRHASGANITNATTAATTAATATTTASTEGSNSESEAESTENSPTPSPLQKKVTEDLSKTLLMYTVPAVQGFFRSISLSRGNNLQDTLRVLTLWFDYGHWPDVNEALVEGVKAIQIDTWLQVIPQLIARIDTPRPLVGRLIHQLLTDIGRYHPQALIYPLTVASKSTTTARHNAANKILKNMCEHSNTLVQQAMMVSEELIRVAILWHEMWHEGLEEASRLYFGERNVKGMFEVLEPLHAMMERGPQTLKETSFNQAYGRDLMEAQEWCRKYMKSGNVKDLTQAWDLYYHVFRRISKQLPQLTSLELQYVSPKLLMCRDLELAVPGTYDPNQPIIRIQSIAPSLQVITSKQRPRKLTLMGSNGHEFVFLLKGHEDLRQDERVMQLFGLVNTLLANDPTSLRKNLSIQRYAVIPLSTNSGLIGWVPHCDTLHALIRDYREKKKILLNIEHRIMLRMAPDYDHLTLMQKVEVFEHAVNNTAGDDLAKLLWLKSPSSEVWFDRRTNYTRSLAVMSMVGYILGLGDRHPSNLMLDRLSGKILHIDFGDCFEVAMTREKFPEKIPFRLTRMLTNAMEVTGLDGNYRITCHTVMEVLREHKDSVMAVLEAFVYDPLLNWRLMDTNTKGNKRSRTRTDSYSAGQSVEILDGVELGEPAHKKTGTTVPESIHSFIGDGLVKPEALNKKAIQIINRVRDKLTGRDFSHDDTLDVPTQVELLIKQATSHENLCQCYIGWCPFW

[3] = target: PI3K-α (Homo sapiens, UniProt P42336); assay: PI3K-alpha fluorescence polarization assay; conditions: read-out: IC50 PI3Kα
Sequence of PI3K-α (P42336 whole entry, species assumed): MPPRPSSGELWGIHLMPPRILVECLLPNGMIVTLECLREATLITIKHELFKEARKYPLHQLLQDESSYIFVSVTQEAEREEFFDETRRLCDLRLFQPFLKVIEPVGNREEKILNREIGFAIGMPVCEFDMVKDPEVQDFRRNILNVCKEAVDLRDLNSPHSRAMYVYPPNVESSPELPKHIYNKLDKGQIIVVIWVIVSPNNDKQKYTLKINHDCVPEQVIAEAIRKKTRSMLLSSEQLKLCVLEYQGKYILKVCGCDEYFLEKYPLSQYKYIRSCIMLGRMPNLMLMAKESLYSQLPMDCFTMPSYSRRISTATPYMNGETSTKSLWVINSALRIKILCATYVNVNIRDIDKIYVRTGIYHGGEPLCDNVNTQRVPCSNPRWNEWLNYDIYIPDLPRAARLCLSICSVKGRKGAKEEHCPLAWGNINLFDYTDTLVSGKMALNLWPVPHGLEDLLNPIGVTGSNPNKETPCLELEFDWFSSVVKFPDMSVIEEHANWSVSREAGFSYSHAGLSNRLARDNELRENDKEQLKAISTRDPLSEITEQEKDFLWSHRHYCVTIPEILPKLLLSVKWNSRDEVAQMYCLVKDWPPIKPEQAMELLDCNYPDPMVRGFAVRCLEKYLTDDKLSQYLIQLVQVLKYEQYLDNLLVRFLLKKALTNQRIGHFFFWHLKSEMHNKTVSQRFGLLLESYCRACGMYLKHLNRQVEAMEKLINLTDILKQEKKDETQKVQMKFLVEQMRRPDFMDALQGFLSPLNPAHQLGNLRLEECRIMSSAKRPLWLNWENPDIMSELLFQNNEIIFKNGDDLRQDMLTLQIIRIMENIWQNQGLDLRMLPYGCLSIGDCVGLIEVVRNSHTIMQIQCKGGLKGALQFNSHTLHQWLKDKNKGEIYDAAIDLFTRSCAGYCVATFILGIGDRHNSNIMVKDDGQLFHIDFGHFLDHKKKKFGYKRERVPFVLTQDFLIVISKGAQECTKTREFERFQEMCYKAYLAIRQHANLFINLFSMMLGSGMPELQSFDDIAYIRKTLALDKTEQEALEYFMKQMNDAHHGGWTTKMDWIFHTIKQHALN
Sequence of PI3K-α (P27986 whole entry partner, species assumed): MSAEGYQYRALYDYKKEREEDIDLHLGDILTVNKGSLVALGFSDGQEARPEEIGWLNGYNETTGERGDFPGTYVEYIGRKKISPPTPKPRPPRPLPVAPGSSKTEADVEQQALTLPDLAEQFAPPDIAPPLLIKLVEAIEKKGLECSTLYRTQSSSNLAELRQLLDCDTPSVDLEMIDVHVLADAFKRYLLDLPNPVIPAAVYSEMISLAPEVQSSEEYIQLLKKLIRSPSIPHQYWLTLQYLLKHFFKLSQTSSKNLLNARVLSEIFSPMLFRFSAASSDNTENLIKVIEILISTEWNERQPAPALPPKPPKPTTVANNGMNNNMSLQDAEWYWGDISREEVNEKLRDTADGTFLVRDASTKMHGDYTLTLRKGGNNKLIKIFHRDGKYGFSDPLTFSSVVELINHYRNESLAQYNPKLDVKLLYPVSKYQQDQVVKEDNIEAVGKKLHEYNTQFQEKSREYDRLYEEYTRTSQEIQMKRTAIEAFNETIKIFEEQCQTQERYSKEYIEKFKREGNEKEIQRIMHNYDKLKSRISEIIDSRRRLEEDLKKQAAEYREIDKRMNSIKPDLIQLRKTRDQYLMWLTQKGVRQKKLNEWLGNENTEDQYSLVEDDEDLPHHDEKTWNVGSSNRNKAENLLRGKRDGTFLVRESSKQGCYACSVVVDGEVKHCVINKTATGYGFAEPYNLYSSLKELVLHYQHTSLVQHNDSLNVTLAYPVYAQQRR

Sequence of PI3K-γ (P48736 whole entry, species assumed): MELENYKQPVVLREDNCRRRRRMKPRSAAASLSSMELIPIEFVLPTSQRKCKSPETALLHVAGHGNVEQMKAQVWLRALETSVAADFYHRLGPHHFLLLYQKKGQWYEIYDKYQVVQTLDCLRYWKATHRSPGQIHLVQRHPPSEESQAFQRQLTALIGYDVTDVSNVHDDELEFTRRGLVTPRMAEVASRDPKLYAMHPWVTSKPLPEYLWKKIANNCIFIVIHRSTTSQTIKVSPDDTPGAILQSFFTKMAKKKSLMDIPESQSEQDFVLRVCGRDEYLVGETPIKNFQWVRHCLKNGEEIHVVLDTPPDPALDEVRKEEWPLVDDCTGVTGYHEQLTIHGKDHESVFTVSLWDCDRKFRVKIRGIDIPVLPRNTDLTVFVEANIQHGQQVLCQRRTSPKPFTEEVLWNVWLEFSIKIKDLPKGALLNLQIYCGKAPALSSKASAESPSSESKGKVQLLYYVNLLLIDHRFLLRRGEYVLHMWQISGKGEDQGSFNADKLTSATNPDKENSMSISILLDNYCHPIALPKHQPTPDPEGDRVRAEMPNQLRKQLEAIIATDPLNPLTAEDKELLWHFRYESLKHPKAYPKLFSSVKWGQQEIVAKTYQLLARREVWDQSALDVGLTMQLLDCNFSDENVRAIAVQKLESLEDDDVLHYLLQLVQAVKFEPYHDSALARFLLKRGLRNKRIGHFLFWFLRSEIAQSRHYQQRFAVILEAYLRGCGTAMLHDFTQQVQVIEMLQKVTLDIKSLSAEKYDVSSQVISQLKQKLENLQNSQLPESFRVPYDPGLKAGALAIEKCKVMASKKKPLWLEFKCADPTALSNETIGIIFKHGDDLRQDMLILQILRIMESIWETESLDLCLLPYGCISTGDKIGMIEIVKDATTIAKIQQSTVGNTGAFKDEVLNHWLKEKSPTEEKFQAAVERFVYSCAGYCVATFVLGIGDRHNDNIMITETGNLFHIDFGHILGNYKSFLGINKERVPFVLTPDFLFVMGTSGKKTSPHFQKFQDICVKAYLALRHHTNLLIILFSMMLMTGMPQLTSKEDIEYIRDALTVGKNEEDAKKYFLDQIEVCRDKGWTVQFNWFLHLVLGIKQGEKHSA

Question: With `CCCCN1CCN(C(=O)c2ccc(NC(=O)Nc3ccc(-c4nc(N5CCOCC5)nc(N5CCCN(C(C)C)CC5)n4)cc3)cc2)CC1` [Example 665, 1-{4-[(4-butylpiperazin-1-yl)carbonyl]phenyl}-3-(4-{4-[4-(1-methylethyl)-1,4-diazepan-1-yl]-6-morpholin-4-yl-1,3,5-triazin-2-yl}phenyl)urea] as the compound, how does the IC50 ([1]; read-out: IC50 PI3Kγ) read?
Answer: 284 nM

Question: What about the IC50 [2] of the same compound?
Answer: 445 nM

Question: What about the IC50 [3] of the same compound?
Answer: 71 nM

Question: With `CC(C)(C)OC(=O)N1CC2CN(c3nc(-c4ccc(NC(=O)Nc5ccncc5)cc4)nc(N4CCOCC4)n3)CC(C1)O2` [Example 281, tert-butyl-7-(4-morpholin-4-yl-6-{4-[(pyridin-4-ylcarbamoyl)amino]phenyl}-1,3,5-triazin-2-yl)-9-oxa-3,7-diazabicyclo[3.3.1]nonane-3-carboxylate] as the compound, how does the IC50 ([1]; read-out: IC50 PI3Kγ) read?
Answer: 4980 nM

Question: And the IC50 [2]?
Answer: 2800 nM

Question: And the IC50 [3]?
Answer: 2190 nM

Question: For `CCCCc1nc(-c2ccc(NC(=O)Nc3ccc(CN4CCN(C)CC4)cc3)cc2)nc(N2CCOCC2)n1` [Example 254, 1-[4-(4-butyl-6-morpholin-4-yl-1,3,5-triazin-2-yl)phenyl]-3-{4-[(4-methylpiperazin-1-yl)methyl]phenyl}urea], which IC50 ([1]; read-out: IC50 PI3Kγ) is on record?
Answer: 253 nM

Question: And the IC50 [2]?
Answer: 17 nM

Question: And the IC50 [3]?
Answer: 63 nM

Question: With `CCS(=O)(=O)N1CCN(c2nc(-c3ccc(NC(=O)Nc4ccc(C(=O)NCCN(C)C)cc4)cc3)nc(N3CCOCC3)n2)CC1` [Example 654, N-[2-(dimethylamino)ethyl]-4-{[(4-{4-[4-(ethylsulfonyl)piperazin-1-yl]-6-morpholin-4-yl-1,3,5-triazin-2-yl}phenyl)carbamoyl]amino}benzamide] as the compound, how does the IC50 ([1]; read-out: IC50 PI3Kγ) read?
Answer: 70 nM

Question: What about the IC50 [2] of the same compound?
Answer: 8 nM

Question: What about the IC50 [3] of the same compound?
Answer: 6 nM

Question: For `COC(=O)c1ccc(NC(=O)Nc2ccc(-c3nc(N4CCOCC4)nc(N4CCC(NC(C)=O)CC4)n3)cc2)cc1` [Example 656, methyl 4-{[(4-{4-[4-(acetylamino)piperidin-1-yl]-6-morpholin-4-yl-1,3,5-triazin-2-yl}phenyl)carbamoyl]amino}benzoate], which IC50 ([1]; read-out: IC50 PI3Kγ) is on record?
Answer: 651 nM

Question: What about the IC50 [2] of the same compound?
Answer: 19 nM

Question: What about the IC50 [3] of the same compound?
Answer: 73 nM

Question: `C[C@H]1COCCN1c1nc(-c2ccc(NC(=O)Nc3ccc(C(=O)O)cc3)cc2)nc(N2CCOC[C@@H]2C)n1` [Example 549, 4-{[(4-{4,6-bis[(3S)-3-methylmorpholin-4-yl]-1,3,5-triazin-2-yl}phenyl)carbamoyl]amino}benzoic acid] was tested. Which IC50 ([1]; read-out: IC50 PI3Kγ) did it give?
Answer: 4540 nM

Question: What about the IC50 [2] of the same compound?
Answer: 26.5 nM

Question: What about the IC50 [3] of the same compound?
Answer: 724 nM

Question: `Nc1ccc(-c2nc(N3CCOCC3)nc(N3CCC4(CC3)OCCO4)n2)cc1` [Example 129, 4-[4-(1,4-dioxa-8-azaspiro[4.5]dec-8-yl)-6-morpholin-4-yl-1,3,5-triazin-2-yl]aniline] was tested. Which IC50 [1] did it give?
Answer: > 10000 nM

Question: What about the IC50 [2] of the same compound?
Answer: 2350 nM

Question: What about the IC50 [3] of the same compound?
Answer: 7220 nM

Question: `CC(C)N1CCN(C(=O)c2ccc(NC(=O)Nc3ccc(-c4nc(N5CCOCC5)nc(N5CCCN(C(C)C)CC5)n4)cc3)cc2)CC1` [Example 663, 1-(4-{4-[4-(1-methylethyl)-1,4-diazepan-1-yl]-6-morpholin-4-yl-1,3,5-triazin-2-yl}phenyl)-3-(4-{[4-(1-methylethyl)piperazin-1-yl]carbonyl}phenyl)urea] was tested. Which IC50 ([1]; read-out: IC50 PI3Kγ) did it give?
Answer: 296 nM

Question: And the IC50 [2]?
Answer: 590 nM

Question: What about the IC50 [3] of the same compound?
Answer: 47.3 nM

Question: For `CCCCc1nc(-c2ccc(NC(=O)Nc3ccc(C(=O)OC)cc3)cc2)nc(N2CCOCC2)n1` [Example 188, methyl 4-({[4-(4-butyl-6-morpholin-4-yl-1,3,5-triazin-2-yl)phenyl]carbamoyl}amino)benzoate], which IC50 ([1]; read-out: IC50 PI3Kγ) is on record?
Answer: 2380 nM

Question: And the IC50 [2]?
Answer: 11 nM

Question: And the IC50 [3]?
Answer: 7540 nM

Question: Which IC50 ([1]; read-out: IC50 PI3Kγ) does the source give for `Cc1ccc(-c2nc(-c3ccc(NC(=O)Nc4ccncc4)cc3)nc(N3CCOCC3)n2)cc1` [Example 340, 1-{4-[4-(4-methylphenyl)-6-morpholin-4-yl-1,3,5-triazin-2-yl]phenyl}-3-pyridin-4-ylurea] here?
Answer: 706 nM

Question: And the IC50 ([1]; read-out: IC50 PI3Kγ, listed as 530)?
Answer: 706 nM

Question: What about the IC50 [2] of the same compound?
Answer: 46 nM and 49.5 nM

Question: What about the IC50 [3] of the same compound?
Answer: 92 nM

Question: Which results are given for `CN(C)CCOc1ccc(NC(=O)Nc2ccc(-c3nc(NS(=O)(=O)c4ccccc4)nc(N4CCOCC4)n3)cc2)cc1` [Example 783, N-(4-{4-[({4-[2-(dimethylamino)ethoxy]phenyl}carbamoyl)amino]phenyl}-6-morpholin-4-yl-1,3,5-triazin-2-yl)benzenesulfonamide]?
Answer: IC50 ([1]; read-out: IC50 PI3Kγ): 736 nM; IC50 [2]: 295 nM; IC50 [3]: 346 nM

Question: Which results are given for `CC(=O)NC1CCN(C(=O)c2ccc(NC(=O)Nc3ccc(-c4nc(N5CCOCC5)nc(N5CCCN(C(C)C)CC5)n4)cc3)cc2)CC1` [Example 661, N-{1-[(4-{[(4-{4-[4-(1-methylethyl)-1,4-diazepan-1-yl]-6-morpholin-4-yl-1,3,5-triazin-2-yl}phenyl)carbamoyl]amino}phenyl)carbonyl]piperidin-4-yl}acetamide]?
Answer: IC50 ([1]; read-out: IC50 PI3Kγ): 462 nM; IC50 [2]: 580 nM; IC50 [3]: 56.5 nM

Question: What does the source list for `CC(C)c1nc(-c2ccc(NC(=O)Nc3ccc(-c4cnc(N(C)C)nc4)cc3)cc2)nc(N2CCOCC2)n1` [Example 493, 1-{4-[2-(dimethylamino)pyrimidin-5-yl]phenyl}-3-{4-[4-(1-methylethyl)-6-morpholin-4-yl-1,3,5-triazin-2-yl]phenyl}urea]?
Answer: IC50 ([1]; read-out: IC50 PI3Kγ): 1080 nM; IC50 [2]: 32.5 nM; IC50 [3]: 2920 nM

Question: For `CCN1CCN(C(=O)c2ccc(NC(=O)Nc3ccc(-c4nc(N5CCOCC5)nc(N5CCCN(C(C)C)CC5)n4)cc3)cc2)CC1` [Example 662, 1-{4-[(4-ethylpiperazin-1-yl)carbonyl]phenyl}-3-(4-{4-[4-(1-methylethyl)-1,4-diazepan-1-yl]-6-morpholin-4-yl-1,3,5-triazin-2-yl}phenyl)urea], which IC50 ([1]; read-out: IC50 PI3Kγ) is on record?
Answer: 197 nM

Question: What about the IC50 [2] of the same compound?
Answer: 770 nM

Question: And the IC50 [3]?
Answer: 34.3 nM

Question: Which results are given for `O=C(Nc1ccncc1)Nc1ccc(-c2nc(N3CCOCC3)nc(N3CCN(C45CC6CC(CC(C6)C4)C5)CC3)n2)cc1` [Example 640, 1-{4-[4-morpholin-4-yl-6-(4-tricyclo[3.3.1.13,7]dec-1-ylpiperazin-1-yl)-1,3,5-triazin-2-yl]phenyl}-3-pyridin-4-ylurea]?
Answer: IC50 ([1]; read-out: IC50 PI3Kγ): 795 nM; IC50 [2]: 2800 nM; IC50 [3]: 345 nM

Question: With `O=C(Nc1ccncc1)Nc1ccc(-c2nc(N3CCOCC3)nc(N3C4COCC3[C@H](O)C4)n2)cc1` (stereo partly drawn) [Example 820, 1-(4-{4-[(6R)-6-hydroxy-3-oxa-8-azabicyclo[3.2.1]oct-8-yl]-6-morpholin-4-yl-1,3,5-triazin-2-yl}phenyl)-3-pyridin-4-ylurea] as the compound, how does the IC50 ([1]; read-out: IC50 PI3Kγ) read?
Answer: 67 nM

Question: And the IC50 [2]?
Answer: 0.515 nM

Question: What about the IC50 [3] of the same compound?
Answer: 6.1 nM

Question: With `CCS(=O)(=O)N1CCN(c2nc(-c3ccc(NC(=O)Nc4ccncc4)cc3)nc(N3CCOCC3)n2)CC1` [Example 650, 1-(4-{4-[4-(ethylsulfonyl)piperazin-1-yl]-6-morpholin-4-yl-1,3,5-triazin-2-yl}phenyl)-3-pyridin-4-ylurea] as the compound, how does the IC50 ([1]; read-out: IC50 PI3Kγ) read?
Answer: 104 nM

Question: And the IC50 [2]?
Answer: 22 nM

Question: And the IC50 [3]?
Answer: 23.5 nM

Question: How did the IC50 ([1]; read-out: IC50 PI3Kγ) turn out when `CC(C)N1CCCN(c2nc(-c3ccc(NC(=O)Nc4ccc(C(=O)N5CCN(C)CC5)cc4)cc3)nc(N3CCOCC3)n2)CC1` [Example 657, 1-(4-{4-[4-(1-methylethyl)-1,4-diazepan-1-yl]-6-morpholin-4-yl-1,3,5-triazin-2-yl}phenyl)-3-{4-[(4-methylpiperazin-1-yl)carbonyl]phenyl}urea] was run?
Answer: 128 nM

Question: What about the IC50 [2] of the same compound?
Answer: 385 nM

Question: And the IC50 [3]?
Answer: 11.5 nM

Question: How did the IC50 ([1]; read-out: IC50 PI3Kγ) turn out when `COC(=O)c1ccc(NC(=O)Nc2ccc(-c3nc(N4CCOCC4)nc(N4C5CCC4COC5)n3)cc2)cc1` [Example 693, methyl 4-[({4-[4-morpholin-4-yl-6-(3-oxa-8-azabicyclo[3.2.1]oct-8-yl)-1,3,5-triazin-2-yl]phenyl}carbamoyl)amino]benzoate] was run?
Answer: 289 nM

Question: And the IC50 [2]?
Answer: 1.35 nM

Question: And the IC50 [3]?
Answer: 69 nM

Question: Which IC50 ([1]; read-out: IC50 PI3Kγ) does the source give for `COC(=O)c1ccc(NC(=O)Nc2ccc(-c3nc(C)nc(N4CCOCC4)n3)cc2)cc1` [Example 162, methyl 4-({[4-(4-methyl-6-morpholin-4-yl-1,3,5-triazin-2-yl)phenyl]carbamoyl}amino)benzoate] here?
Answer: 495 nM

Question: And the IC50 [2]?
Answer: 23 nM

Question: What about the IC50 [3] of the same compound?
Answer: 10 nM

Question: What does the source list for `CCc1nc(-c2ccc(NC(=O)Nc3cccc(C(=O)O)c3)cc2)nc(N2CCOCC2)n1` [Example 585, 3-({[4-(4-ethyl-6-morpholin-4-yl-1,3,5-triazin-2-yl)phenyl]carbamoyl}amino)benzoic acid]?
Answer: IC50 ([1]; read-out: IC50 PI3Kγ): 131 nM; IC50 [2]: 12 nM; IC50 [3]: 65 nM

Question: How did the IC50 ([1]; read-out: IC50 PI3Kγ) turn out when `Cc1ccc(-c2nc(-c3ccc(NC(=O)Nc4cccc(C(=O)N(C)CCN(C)C)c4)cc3)nc(N3CCOCC3)n2)cc1` [Example 580, N-[2-(dimethylamino)ethyl]-N-methyl-3-[({4-[4-(4-methylphenyl)-6-morpholin-4-yl-1,3,5-triazin-2-yl]phenyl}carbamoyl)amino]benzamide] was run?
Answer: 1320 nM

Question: And the IC50 [2]?
Answer: 100 nM

Question: And the IC50 [3]?
Answer: 465 nM

Question: How did the IC50 ([1]; read-out: IC50 PI3Kγ) turn out when `CC(=O)N1CC2CN(c3nc(-c4ccc(NC(=O)Nc5ccncc5)cc4)nc(N4CCOCC4)n3)CC(C1)O2` [Example 292, 1-{4-[4-(7-acetyl-9-oxa-3,7-diazabicyclo[3.3.1]non-3-yl)-6-morpholin-4-yl-1,3,5-triazin-2-yl]phenyl}-3-pyridin-4-ylurea] was run?
Answer: 3690 nM

Question: And the IC50 [2]?
Answer: 70 nM and 68 nM

Question: What about the IC50 [3] of the same compound?
Answer: 1500 nM

Question: Which IC50 ([1]; read-out: IC50 PI3Kγ) does the source give for `CS(=O)(=O)N1CC2CN(c3nc(-c4ccc(NC(=O)Nc5ccncc5)cc4)nc(N4CCOCC4)n3)CC(C1)O2` [Example 293, 1-(4-{4-[7-(methylsulfonyl)-9-oxa-3,7-diazabicyclo[3.3.1]non-3-yl]-6-morpholin-4-yl-1,3,5-triazin-2-yl}phenyl)-3-pyridin-4-yl urea] here?
Answer: 533 nM

Question: What about the IC50 [2] of the same compound?
Answer: 500 nM and 470 nM

Question: What about the IC50 [3] of the same compound?
Answer: 764 nM

Question: What does the source list for `O=C(Nc1ccc(-c2nc(N3CCOCC3)nc(N3CCOCC3)n2)cc1)Nc1ccnnc1` [Example 481, 1-[4-(4,6-dimorpholin-4-yl-1,3,5-triazin-2-yl)phenyl]-3-pyridazin-4-ylurea]?
Answer: IC50 ([1]; read-out: IC50 PI3Kγ): 65 nM; IC50 [2]: 2.3 nM; IC50 [3]: 11 nM

Question: `COC(=O)c1ccc(NC(=O)Nc2ccc(-c3nc(N4CCCCC4)nc(N4CCOCC4)n3)cc2)cc1` [Example 591, methyl 4-({[4-(4-morpholin-4-yl-6-piperidin-1-yl-1,3,5-triazin-2-yl)phenyl]carbamoyl}amino)benzoate] was tested. Which IC50 ([1]; read-out: IC50 PI3Kγ) did it give?
Answer: 726 nM

Question: And the IC50 [2]?
Answer: 33 nM

Question: And the IC50 [3]?
Answer: 250 nM
